Laboratory results published in patent US11814372B2, “Agonists of EPHA and their uses” (CASE WESTERN RESERVE UNIVERSITY, priority 2017, dated 2023).

Target: T1, EphA2 LBD (Homo sapiens, UniProt P29317)
T1 construct: fused on or other part: Minimal biotinylation for capture on Neutravidin (doxazosin run); amine coupling for the other compounds
Experiment: Surface Plasmon Resonance binding analysis
Conditions: SPR, recombinant LBD of EphA2; read-out: dissociation constant (KD)
Experimental: Binding analysis was carried out using standard biosensor chips and the […] Dual Channel SPR System (Reichert Life Sciences, Depew, N.Y.). The extracellular domain (ECD) of EphA2 was coupled to the chip by standard amine coupling using 1-ethyl-3-(3-dimethylaminopropyl) carbodiimide (EDC) and N-hydroxysuccinimide (NHS), followed by ethanolamine wash. In the case of doxazosin, Neutravidin was coupled to the chip, followed by ethanolamine wash and addition of minimally biotinylated EphA2 ECD to properly orient the protein. Different concentrations of dobutamine, labetalol, and doxazosin in running buffer (PBS, 0.05% Tween-20, 1% DMSO) were flown over the chip at a rate of […] and binding analyzed in real-time. After approximately 60 seconds, running buffer was flown over the chip to dissociate the compounds from the coupled protein (downward slope of curve). Binding data were analyzed and KD values determined using Clamp software (BioLogic Software Pty Ltd).

T1 sequence (P29317 28-206 limits assumed): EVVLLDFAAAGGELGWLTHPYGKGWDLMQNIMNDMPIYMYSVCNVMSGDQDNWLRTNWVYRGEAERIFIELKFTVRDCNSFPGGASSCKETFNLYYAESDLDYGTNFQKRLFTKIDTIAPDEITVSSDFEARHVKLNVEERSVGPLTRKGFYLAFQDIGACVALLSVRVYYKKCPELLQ

| Kd [µM] | SMILES |
| --- | --- |
| 1500 | CC(CCc1ccc(O)cc1)NCCc1ccc(O)c(O)c1 (centres unmarked) [dobutamine] |
| 440 | CC(CCc1ccccc1)NCC(O)c1ccc(O)c(C(N)=O)c1 (centres unmarked) [labetalol] |
